Data taken from patent US10501498B2 (BGI SHENZHEN, priority 2014, dated 2019).
“Also recorded” adds a separate entry of the source.

Test system: HVA calcium channel
Assay type: cell-based, rat

KCCTMSVCQPPPVCTCCA [κ-CPTx-btl01]
current after loading: −459.93 pA | inhibition of HVA calcium channel currents compared with Nifedipine (positive control): inhibitory effect is higher than that of Nifedipine; also recorded: higher inhibition rate on HVA calcium channel currents than Nifedipine | inhibition rate (10 µM): 52.17%
